14 molecules from ChEMBL document CHEMBL3301562, “MMV Box screening against Plasmodium falciparum protein kinases and aminoacyl tRNA synthetases” can be followed below.

Assay type in all cases: functional
One assay addresses T1, Proline--tRNA ligase (Plasmodium falciparum (isolate 3D7), UniProt Q8I5R7).
T1 sequence (Q8I5R7 whole entry): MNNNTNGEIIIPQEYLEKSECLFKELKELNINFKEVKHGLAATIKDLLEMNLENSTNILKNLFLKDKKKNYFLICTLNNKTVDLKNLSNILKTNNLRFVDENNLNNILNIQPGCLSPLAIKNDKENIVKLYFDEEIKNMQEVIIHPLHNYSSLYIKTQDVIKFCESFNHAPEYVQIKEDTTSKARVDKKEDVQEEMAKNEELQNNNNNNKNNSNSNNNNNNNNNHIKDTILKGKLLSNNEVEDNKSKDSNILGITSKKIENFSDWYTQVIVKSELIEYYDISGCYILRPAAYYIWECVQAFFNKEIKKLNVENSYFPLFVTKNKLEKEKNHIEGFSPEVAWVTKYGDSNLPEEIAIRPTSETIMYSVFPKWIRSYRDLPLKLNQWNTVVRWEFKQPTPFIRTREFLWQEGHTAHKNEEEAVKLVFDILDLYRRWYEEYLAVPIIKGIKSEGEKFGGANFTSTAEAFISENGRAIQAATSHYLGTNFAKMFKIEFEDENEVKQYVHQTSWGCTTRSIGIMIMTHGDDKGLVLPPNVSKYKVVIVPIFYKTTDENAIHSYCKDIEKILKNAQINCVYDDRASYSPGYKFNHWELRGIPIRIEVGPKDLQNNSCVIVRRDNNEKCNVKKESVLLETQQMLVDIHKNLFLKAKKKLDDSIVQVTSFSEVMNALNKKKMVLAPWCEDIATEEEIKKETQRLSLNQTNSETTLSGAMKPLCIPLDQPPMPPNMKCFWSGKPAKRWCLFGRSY
In words: MMV: ProRS recombinant Plasmodium falciparum Prolyl-tRNA-synthetase, assay with yeast tRNA, ATP, and proline and 3 uM MMV malaria box compound, assay read out with kinase glo as % inhibition.

The target in assay [1] is T2, Calcium-dependent protein kinase 4 (Plasmodium falciparum (isolate 3D7), UniProt Q8IBS5).
T2 sequence (Q8IBS5 whole entry): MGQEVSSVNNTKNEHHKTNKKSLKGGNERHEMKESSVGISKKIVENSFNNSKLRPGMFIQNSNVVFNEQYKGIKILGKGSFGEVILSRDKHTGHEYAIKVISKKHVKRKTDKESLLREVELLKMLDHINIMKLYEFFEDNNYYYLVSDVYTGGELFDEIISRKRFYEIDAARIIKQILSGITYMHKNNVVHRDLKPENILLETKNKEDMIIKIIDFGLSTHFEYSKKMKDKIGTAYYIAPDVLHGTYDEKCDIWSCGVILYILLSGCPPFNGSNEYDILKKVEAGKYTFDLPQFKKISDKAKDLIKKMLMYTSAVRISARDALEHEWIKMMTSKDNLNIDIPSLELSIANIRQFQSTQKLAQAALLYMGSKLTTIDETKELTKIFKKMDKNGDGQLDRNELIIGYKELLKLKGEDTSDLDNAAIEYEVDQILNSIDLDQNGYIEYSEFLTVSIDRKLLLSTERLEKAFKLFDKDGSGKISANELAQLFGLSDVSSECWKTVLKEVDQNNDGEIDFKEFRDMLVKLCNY
The assay is described as follows: MMV: CDPK4 Protein kinase inhibition assay using recombinant PfCDPK4, syntide2 peptide substrate, ATP and KinaseGlo to measure % inhibition at 1 uM MMV box compound. (In Kinase-Glo more light means more ATP remaining.)

The target in assay [2] is T3, Putative uncharacterized protein pk7 (Plasmodium falciparum, UniProt O96214).
T3 sequence (O96214 whole entry): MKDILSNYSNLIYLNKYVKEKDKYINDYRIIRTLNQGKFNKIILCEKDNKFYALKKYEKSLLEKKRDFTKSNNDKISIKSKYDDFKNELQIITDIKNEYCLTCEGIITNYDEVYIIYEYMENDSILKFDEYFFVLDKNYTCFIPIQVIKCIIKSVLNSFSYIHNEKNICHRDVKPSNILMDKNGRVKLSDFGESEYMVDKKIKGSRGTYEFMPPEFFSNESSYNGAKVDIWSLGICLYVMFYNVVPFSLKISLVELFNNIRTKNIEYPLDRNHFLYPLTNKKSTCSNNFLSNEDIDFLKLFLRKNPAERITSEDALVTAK
In words: Final concentrations were 1 uM ATP, 2 mM DTT, 20 mM MgCl2, 2 mM MnCl2, 0.01% BSA, and 6 ug/ml PK7, in a buffer of 20 mM Tris-HCl (pH 7.5). The enzyme itself was the only substrate present (since autophosphorylation occurs); 100 uM 1NA-PP1 was used as a control inhibitor. Incubation time was 3 hours.

In another assay the target is Lysine--tRNA ligase (Plasmodium falciparum (isolate 3D7), UniProt Q8IDJ8). In words: MMV: KRS recombinant Plasmodium falciparum Lysyl-tRNA-synthetase, assay with yeast tRNA, ATP, and lysine and 3 uM MMV malaria box compound, assay read out with kinase glo as % inhibition.
Chain of Lysine--tRNA ligase (Q8IDJ8 whole entry): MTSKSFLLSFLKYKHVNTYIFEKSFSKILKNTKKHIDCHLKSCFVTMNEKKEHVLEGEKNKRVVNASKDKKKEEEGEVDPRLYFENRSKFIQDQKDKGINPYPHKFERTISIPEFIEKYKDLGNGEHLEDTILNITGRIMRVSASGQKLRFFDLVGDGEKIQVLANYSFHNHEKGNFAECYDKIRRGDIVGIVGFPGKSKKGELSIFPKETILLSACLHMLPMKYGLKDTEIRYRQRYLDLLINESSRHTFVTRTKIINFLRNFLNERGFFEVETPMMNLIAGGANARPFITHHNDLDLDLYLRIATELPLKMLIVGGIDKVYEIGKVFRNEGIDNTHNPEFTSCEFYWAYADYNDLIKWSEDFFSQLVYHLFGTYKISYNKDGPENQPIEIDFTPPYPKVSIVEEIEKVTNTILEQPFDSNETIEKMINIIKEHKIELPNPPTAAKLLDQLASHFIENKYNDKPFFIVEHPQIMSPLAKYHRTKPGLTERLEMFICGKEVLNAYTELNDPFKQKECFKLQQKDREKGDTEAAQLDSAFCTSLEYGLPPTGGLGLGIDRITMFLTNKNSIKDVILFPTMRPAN
The target in assay [3] is T4, Mitogen-activated protein kinase (Plasmodium falciparum, UniProt Q25917).
T4 sequence (Q25917 whole entry): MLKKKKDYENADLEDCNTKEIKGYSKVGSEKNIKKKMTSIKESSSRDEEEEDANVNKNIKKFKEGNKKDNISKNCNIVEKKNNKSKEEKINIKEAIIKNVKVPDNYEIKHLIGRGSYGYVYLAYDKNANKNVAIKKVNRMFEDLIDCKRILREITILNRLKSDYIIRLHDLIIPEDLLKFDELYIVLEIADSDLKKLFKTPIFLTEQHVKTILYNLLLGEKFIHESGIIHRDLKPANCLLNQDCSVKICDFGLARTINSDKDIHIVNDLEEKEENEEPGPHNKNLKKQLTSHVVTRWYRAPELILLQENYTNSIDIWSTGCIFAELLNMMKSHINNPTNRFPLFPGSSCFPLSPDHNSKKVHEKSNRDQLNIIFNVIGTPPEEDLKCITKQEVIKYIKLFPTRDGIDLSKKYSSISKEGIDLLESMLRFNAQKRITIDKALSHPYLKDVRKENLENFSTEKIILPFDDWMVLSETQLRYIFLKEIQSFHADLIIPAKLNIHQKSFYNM
The assay is described as follows: Final concentrations were 1 uM ATP, 0.5 mM DTT, 1 mM MgCl2, 0.5 mg/mL BSA, and 10 ug/ml MAP2 in a buffer of 50 mM HEPES (pH 7.0). 0.5 mg/mL histone III-S served as the substrate (13); 100 uM AMP-PNP, an ATP analog, was used as a control inhibitor. Incubation time was 4 hours.

For assay [4], the target named is Calcium-dependent protein kinase 1 (Plasmodium falciparum, UniProt P62344). In words: MMV: CDPK1 Protein kinase inhibition assay using recombinant PfCDPK1, syntide 2 peptide substrate, ATP and KinaseGlo to measure % inhibition at 1 uM MMV box compound.
Chain of Calcium-dependent protein kinase 1 (P62344 whole entry): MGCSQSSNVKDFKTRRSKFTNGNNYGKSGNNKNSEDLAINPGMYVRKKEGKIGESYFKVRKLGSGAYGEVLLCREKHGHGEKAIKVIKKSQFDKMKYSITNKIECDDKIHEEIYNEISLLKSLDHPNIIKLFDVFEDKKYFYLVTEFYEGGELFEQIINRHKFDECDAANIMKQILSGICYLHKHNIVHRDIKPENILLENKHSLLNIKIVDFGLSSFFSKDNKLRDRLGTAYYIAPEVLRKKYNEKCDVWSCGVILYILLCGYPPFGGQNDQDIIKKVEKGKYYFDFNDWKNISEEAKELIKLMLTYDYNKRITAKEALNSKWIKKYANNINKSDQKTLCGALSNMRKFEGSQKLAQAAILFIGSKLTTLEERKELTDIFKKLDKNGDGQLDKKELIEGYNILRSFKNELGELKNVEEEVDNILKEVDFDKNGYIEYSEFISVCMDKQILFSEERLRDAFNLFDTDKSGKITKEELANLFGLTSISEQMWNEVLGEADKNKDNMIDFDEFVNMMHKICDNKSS
Assay [5] concerns the target T5, Cdk-related protein kinase 6 (Plasmodium falciparum, UniProt O77239).
T5 sequence (O77239 whole entry): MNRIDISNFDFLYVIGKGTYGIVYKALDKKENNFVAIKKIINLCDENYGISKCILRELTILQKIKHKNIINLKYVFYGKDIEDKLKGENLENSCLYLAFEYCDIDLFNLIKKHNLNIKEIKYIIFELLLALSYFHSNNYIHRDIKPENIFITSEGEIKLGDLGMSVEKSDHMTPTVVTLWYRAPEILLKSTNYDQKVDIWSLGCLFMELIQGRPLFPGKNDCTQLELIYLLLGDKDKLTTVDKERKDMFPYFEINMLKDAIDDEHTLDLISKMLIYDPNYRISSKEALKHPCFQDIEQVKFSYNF
The assay is described as follows: Final concentrations were 1.5 uM ATP, 5 mM MnCl2, and 15 ug/ml PK6 in a buffer of 100 mM Tris-HCl (pH 7.5). 50 ug/mL MBP was provided as the substrate; 10 uM staurosporine was used as a control inhibitor. Incubation time was 3 hours and 40 minutes.The catalytic activity of each kinase was considered proportional to ATP consumed, as determined from measurements of residual [ATP] with the luciferase-based reagent Kinase-Glo (Promega) following incubation. Luminescence (proportional to residual [ATP]) was measured on the plate readers FLx800 (BioTek Instruments, Winooski, VT, USA) and MicroBeta2.

Each structure is given as a SMILES string. A value given as a limit tells only on which side of the number the result lay.

By IC50 is commonly meant the midpoint of a concentration-inhibition curve.

On to `COc1ccc(Nc2nc(N/N=C/c3ccc(O)cc3)nc(Nc3ccc([N+](=O)[O-])cc3)n2)cc1`, for which the IC50 on Proline--tRNA ligase is above 2.5 µM; in assay [1], above 1 µM; in assay [2], above 1 µM; at Lysine--tRNA ligase, above 2.5 µM; in assay [3] it was above 1 µM; in assay [4] it was above 1 µM. Moreover, in assay [5], the IC50 was above 1 µM.
In the case of `O=C(NNc1cc(N2CCCC2)nc(N2CCCC2)n1)c1ccccc1`, the IC50 on Proline--tRNA ligase is above 2.5 µM; in assay [1], above 1 µM; in assay [2], above 1 µM; on Lysine--tRNA ligase, above 2.5 µM; in assay [3], above 1 µM; in assay [4], above 1 µM. Moreover, the IC50 in assay [5] was above 1 µM.
For the molecule `COC(=O)c1ccc(Cl)c2c1C1C=CCC1C(c1cccc3ccccc13)N2` (stereo not drawn), the IC50 on Proline--tRNA ligase is above 2.5 µM; in assay [1] it was above 1 µM; in assay [2], above 1 µM; at Lysine--tRNA ligase, above 2.5 µM; in assay [3], above 1 µM; in assay [4], above 1 µM. In addition, in assay [5], the IC50 is above 1 µM.
As to `O=C(CCc1ccccc1)c1ccccc1OCC(O)CN1CCCCC1` (stereo not drawn), the IC50 on Proline--tRNA ligase is above 2.5 µM; in assay [1], above 1 µM; in assay [2] it was above 1 µM; on Lysine--tRNA ligase it was above 2.5 µM; in assay [3], above 1 µM; in assay [4], above 1 µM. The IC50 in assay [5] was above 1 µM.
As to `Cn1c(C(=O)c2cccc3ccccc23)nc2ccccc21`, the IC50 was above 2.5 µM at Proline--tRNA ligase; above 1 µM in assay [1]; above 1 µM in assay [2]; above 2.5 µM at Lysine--tRNA ligase; above 1 µM in assay [3]; above 1 µM in assay [4]. The molecule also displayed an IC50 in assay [5] above 1 µM.
For `OCCNc1nc(Nc2ccc(Cl)c(Cl)c2)nc2ccccc12`, the half-maximal inhibitory concentration (IC50) on Proline--tRNA ligase was above 2.5 µM; in assay [1], above 1 µM; in assay [2] it was above 1 µM; at Lysine--tRNA ligase, above 2.5 µM; in assay [3], above 1 µM; in assay [4] it was above 1 µM. Moreover, in assay [5], the IC50 was above 1 µM.
With `Nc1ccc(-c2nc3cc(Oc4ccc(Oc5ccc6[nH]c(-c7ccc(N)cc7)nc6c5)cc4)ccc3[nH]2)cc1`, the IC50 was above 2.5 µM at Proline--tRNA ligase; above 1 µM in assay [1]; above 1 µM in assay [2]; above 2.5 µM on Lysine--tRNA ligase; above 1 µM in assay [3]; above 1 µM in assay [4]. This molecule also gave an IC50 in assay [5] above 1 µM.
Turning to `Cc1cc(N(C)C)nc(Nc2ccc(NC(=O)Nc3ccccc3)cc2)n1`, the IC50 at Proline--tRNA ligase was above 2.5 µM; in assay [1], above 1 µM; in assay [2] it was above 1 µM; at Lysine--tRNA ligase, above 2.5 µM; in assay [3] it was above 1 µM; in assay [4], above 1 µM. The IC50 in assay [5] is above 1 µM.
Regarding `Cc1ccc(Nc2nc(N)c3ccccc3n2)cc1Cl`, the IC50 at Proline--tRNA ligase is above 2.5 µM; in assay [1], above 1 µM; in assay [2], above 1 µM; at Lysine--tRNA ligase, above 2.5 µM; in assay [3], above 1 µM; in assay [4], above 1 µM. Further, the half-inhibitory concentration (IC50) in assay [5] is above 1 µM.
As for `CCc1ccc(CNCC(O)c2ccccc2)cc1` (stereo not drawn), the IC50 on Proline--tRNA ligase was above 2.5 µM; in assay [1], above 1 µM; in assay [2] it was above 1 µM; at Lysine--tRNA ligase it was above 2.5 µM; in assay [3], above 1 µM; in assay [4], above 1 µM. The same molecule displayed a 50% inhibitory concentration (IC50) in assay [5] above 1 µM.
Turning to `CCCn1c(=N)c(C(=O)NC2CCCCC2)cc2c(=O)n3cccc(C)c3nc21`, the IC50 on Proline--tRNA ligase is above 2.5 µM; in assay [1] it was above 1 µM; in assay [2], above 1 µM; at Lysine--tRNA ligase, above 2.5 µM; in assay [3] it was above 1 µM; in assay [4] it was above 1 µM. The molecule also gave an IC50 in assay [5] above 1 µM.
Take `Nc1ccn([C@@H]2O[C@H](CO)[C@@H](O)[C@H]2O)c(=O)n1` [CYTIDINE]: the IC50 was above 2.5 µM at Proline--tRNA ligase; above 1 µM in assay [1]; above 1 µM in assay [2]; above 2.5 µM on Lysine--tRNA ligase; above 1 µM in assay [3]; above 1 µM in assay [4]. This molecule had an IC50 in assay [5] above 1 µM.
`O=C(Nc1cccc(C2=NCCN2)c1)Nc1cccc(C2=NCCN2)c1` [IMIDOCARB]: the IC50 at Proline--tRNA ligase was above 2.5 µM; in assay [1], above 1 µM; in assay [2] it was above 1 µM; at Lysine--tRNA ligase it was above 2.5 µM; in assay [3], above 1 µM; in assay [4] it was above 1 µM. The same molecule displayed a half-inhibitory concentration (IC50) in assay [5] above 1 µM.
Regarding `CN(C)c1ccc(C(O)(c2ccc(N(C)C)cc2)c2ccc(N(C)C)cc2)cc1` [METHYLROSANILINE], the IC50 at Proline--tRNA ligase was above 2.5 µM; in assay [1], above 1 µM; in assay [2], above 1 µM; at Lysine--tRNA ligase, above 2.5 µM; in assay [3], above 1 µM; in assay [4], above 1 µM. For the same molecule, in assay [5], the IC50 is above 1 µM.
